Literature values in article PMC12580894 (Cancer Research Communications, 2025).

Tests used:
[1] = test system: patients with advanced solid tumours; conditions: berzosertib with cisplatin
[2] = test system: untreated advanced urothelial carcinoma

Structure (SMILES): CNCc1ccc(-c2cc(-c3nc(-c4ccc(S(=O)(=O)C(C)C)cc4)cnc3N)on2)cc1 [berzosertib]
- patients with a confirmed PR ([1]; despite prior platinum exposure, 31 patients): Two
- most common AEs ([1]; phase I): hematologic in nature
- DLTs observed ([1]; phase I, 31 patients): a grade 3 hypersensitivity reaction and a grade 3 increase in alanine aminotransferase
- Hematologic toxicity rates ([2]; GC plus berzosertib versus GC alone): higher
- clinical benefit upon the addition of berzosertib ([2]; gemcitabine and cisplatin (GC) with or without berzosertib): no clinical benefit
